This note sets out measurements from ChEMBL document CHEMBL1201862, “PubChem BioAssay data set” (2004).

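These data come from cells grown in 96-well plates and exposed to compound for 48 hours at five concentrations. GI50 = concentration required for 50% inhibition of growth.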 The source made the active and inactive calls. Cut-off read from the data, not from the text of the source: active = GI50 up to about 1.1 µM and inactive = higher.

Common to all, as to test: inhibition of tumour cell growth, NCI panel, 48 h
The test system of experiment [1] is MCF7.
For experiment [2], the system named is HCC 2998.
For experiment [3], the system named is HL-60.
The test system of experiment [4] is NCI-H460.
Experiment [5] relates to SNB-75.
For experiment [6], the system named is 786-0.
Experiment [7] concerns NCI/ADR-RES.
Experiment [8] has as its system SN12C.
Experiment [9] has as its system Hs-578T.
In experiment [10] the test system is SW-620.
In experiment [11] the test system is EKVX.
Experiment [12] concerns SK-MEL-5.
Experiment [13] relates to UO-31.
Experiment [14] concerns A549.
Experiment [15] concerns RXF 393.
For experiment [16], the system named is SF-539.
For experiment [17], the system named is SR.
Experiment [18] relates to LOX IMVI.
Experiment [19] concerns OVCAR-3.
Experiment [20] concerns SK-MEL-2.

As to `Cc1ccc(S(=O)(=O)N(CC(O)COc2ccccc2)c2ccccc2Cl)cc1` (centres undefined), the GI50 in experiment [1] is 20.5 µM (inactive); in [2], 19.5 µM (inactive); in experiment [3], 24.6 µM (inactive); in [4], 17 µM (inactive); in [5] it was 22.3 µM (inactive); in experiment [6], 18.4 µM (inactive). The GI50 in experiment [7] was 16.8 µM (inactive); in experiment [8], 15 µM (inactive); in experiment [9] it was 10.9 µM (inactive); in [10] it was 17.8 µM (inactive); in [11], 13.6 µM (inactive); in experiment [12], 14.7 µM (inactive). Further, the GI50 in experiment [13] is 12.2 µM (inactive); in experiment [14] it was 11.8 µM (inactive); in experiment [15], 16 µM (inactive); in experiment [16], 18 µM (inactive); in [17], 13.9 µM (inactive); in experiment [18], 17.3 µM (inactive). Further, the GI50 in experiment [19] is 19 µM (inactive); in experiment [20], 13.7 µM (inactive).
With `CCn1cc(C(=O)O)c(=O)c2cc(F)c(N3CCN(CN4C(=O)/C(=N\c5ncc(Cc6cc(OC)c(OC)c(OC)c6)c(N)n5)c5cc(Cl)ccc54)CC3)cc21`, the GI50 in [1] is 82 µM (inactive); in [2], 42.2 µM (inactive); in [3] it was 20 µM (inactive); in experiment [4], > 100 µM (inactive); in experiment [5], > 100 µM (inactive); in experiment [6], > 100 µM (inactive). Further, the GI50 was > 100 µM (inactive) in [7]; > 100 µM (inactive) in experiment [8]; > 100 µM (inactive) in experiment [9]; 5.3 µM (inactive) in experiment [10]; > 100 µM (inactive) in [11]; > 100 µM (inactive) in experiment [12]. In addition, the GI50 is > 100 µM (inactive) in experiment [13]; > 100 µM (inactive) in experiment [14]; > 100 µM (inactive) in experiment [15]; > 100 µM (inactive) in experiment [16]; 41.4 µM (inactive) in [17]; > 100 µM (inactive) in experiment [18]. Moreover, the GI50 in experiment [19] and in experiment [20] was > 100 µM (inactive) each time.
Take `CCCCCCCCCCCCCCCCOCC(COP(=O)(O)OCC1OC(n2cc(CC)c(=O)[nH]c2=O)CC1O)OC(=O)CCCCCCCCCCCCCCC` (centres undefined): the GI50 in experiment [1] was > 100 µM (inactive); in [2] it was > 100 µM (inactive); in experiment [3], 52 µM (inactive); in experiment [5], > 100 µM (inactive); in experiment [6], > 100 µM (inactive); in [7], > 100 µM (inactive). For the same compound, the GI50 in experiment [8], in experiment [9], in experiment [10], in experiment [11], in [13] and in experiment [14] was > 100 µM (inactive) each time. Also, the GI50 in experiment [15], in experiment [16], in experiment [17], in experiment [18], in experiment [19] and in experiment [20] was > 100 µM (inactive) each time.
Take `Cc1ccc(S(=O)(=O)NC(=O)NCCc2c[nH]cn2)cc1`: the GI50 in [1], in [2], in experiment [3], in experiment [4], in [5] and in [6] was > 100 µM (inactive) each time. Further, the GI50 in [7], in [9], in experiment [10], in experiment [11], in experiment [12] and in experiment [13] was > 100 µM (inactive) in each case. Also, the GI50 in [14], in [15], in [16], in experiment [17], in experiment [18] and in [19] was > 100 µM (inactive) throughout. The GI50 in experiment [20] is > 100 µM (inactive).
`c1ccc(C2=Nn3c(CCCCCCCCc4nnc5n4N=C(c4ccccc4)CS5)nnc3SC2)cc1`: the GI50 in experiment [1] is > 100 µM (inactive); in experiment [2], > 100 µM (inactive); in experiment [4], > 100 µM (inactive); in [5], 14.5 µM (inactive); in experiment [6], 14.8 µM (inactive); in experiment [7], > 79.8 µM (inactive). The GI50 was > 88.1 µM (inactive) in [8]; 21.1 µM (inactive) in experiment [9]; > 100 µM (inactive) in experiment [10]; 76.2 µM (inactive) in [11]; > 100 µM (inactive) in experiment [12]; > 67.3 µM (inactive) in experiment [13]. Besides, the GI50 is > 100 µM (inactive) in experiment [14]; 20.5 µM (inactive) in experiment [15]; 3.45 µM (inactive) in experiment [16]; > 68.5 µM (inactive) in experiment [17]; 45.4 µM (inactive) in [18]; > 100 µM (inactive) in experiment [19]. Moreover, in [20], the GI50 was 32.1 µM (inactive).
Turning to `CN(C)CCCOC(=O)C(O)(Cc1ccccc1)C1CC1` (centres undefined), the GI50 in [1] was > 100 µM (inactive); in experiment [2], > 100 µM (inactive); in [3] it was > 100 µM (inactive); in experiment [4], > 100 µM (inactive); in experiment [5], 79.8 µM (inactive); in experiment [6] it was > 100 µM (inactive). For the same compound, the GI50 in experiment [7], in experiment [8], in experiment [9], in [10], in experiment [11] and in experiment [12] was > 100 µM (inactive) throughout. Also, the GI50 in [14], in [15], in experiment [16], in [17], in [18] and in [19] was > 100 µM (inactive) each time. In experiment [20], the GI50 was > 100 µM (inactive).
For `Cn1c(=O)c2c(no[n+]2[O-])n(C)c1=O`, the GI50 is > 100 µM (inactive) in experiment [1]; > 100 µM (inactive) in [2]; > 100 µM (inactive) in experiment [4]; 49.7 µM (inactive) in experiment [5]; 23.8 µM (inactive) in experiment [6]; 22.9 µM (inactive) in experiment [7]. Moreover, the GI50 was 39.3 µM (inactive) in experiment [8]; 22.6 µM (inactive) in experiment [9]; 25.4 µM (inactive) in experiment [10]; 28.4 µM (inactive) in experiment [11]; 42.6 µM (inactive) in [12]; 31 µM (inactive) in experiment [13]. For the same compound, the GI50 was > 100 µM (inactive) in experiment [14]; 27.7 µM (inactive) in [15]; 63.2 µM (inactive) in experiment [16]; > 100 µM (inactive) in experiment [17]; > 100 µM (inactive) in [18]; > 100 µM (inactive) in [19]. Also, the GI50 in experiment [20] is 45 µM (inactive).
As to `Cc1nc2ccc(Cl)cc2c(-n2ccnc2)c1CCn1ccnc1`, the GI50 in experiment [1] is 32.3 µM (inactive); in [2] it was 49.8 µM (inactive); in [3], 23.7 µM (inactive); in experiment [4] it was 23.2 µM (inactive); in experiment [5] it was 20 µM (inactive); in experiment [6], 1.69 µM (inactive). The GI50 in experiment [7] was 2.03 µM (inactive); in [8], 34 µM (inactive); in [9], 12.9 µM (inactive); in experiment [10] it was 39.4 µM (inactive); in experiment [12] it was 20.7 µM (inactive); in experiment [13] it was 14.5 µM (inactive). The GI50 in experiment [14] is 34.9 µM (inactive); in experiment [15], 14.1 µM (inactive); in [16], 61.4 µM (inactive); in experiment [17], 0.678 µM (active); in experiment [18], 21 µM (inactive); in experiment [19], 32.1 µM (inactive). In addition, the GI50 in [20] was 19.2 µM (inactive).
Regarding `CN1CCN(c2ccc3[nH]c(-c4ccc5[nH]c(-c6ccc(O)cc6)nc5c4)nc3c2)CC1`, the GI50 in experiment [1] is 4.98 µM (inactive); in [2], 151 µM (inactive); in experiment [3], 11.9 µM (inactive); in experiment [5], 353 µM (inactive); in [6] it was 228 µM (inactive); in experiment [7], 482 µM (inactive). The GI50 in experiment [8] is 127 µM (inactive); in [9], > 100 µM (inactive); in experiment [10] it was 102 µM (inactive); in experiment [12], 11.8 µM (inactive); in experiment [13] it was 564 µM (inactive); in experiment [14], 332 µM (inactive). In addition, the GI50 in experiment [15] is 130 µM (inactive); in experiment [16], 54.8 µM (inactive); in experiment [17], 28.1 µM (inactive); in experiment [18], 85.5 µM (inactive); in experiment [20], > 100 µM (inactive).
For `COc1ccc(C2(CC(C)O)SCCCS2)cc1` (centres undefined), the GI50 was > 100 µM (inactive) in [1]; > 100 µM (inactive) in experiment [2]; 37.2 µM (inactive) in experiment [3]; > 100 µM (inactive) in experiment [4]; > 100 µM (inactive) in experiment [5]; > 100 µM (inactive) in [6]. Moreover, the GI50 in experiment [7], in experiment [8], in [9], in [10], in experiment [11] and in experiment [12] was > 100 µM (inactive) each time. Also, the GI50 in [13], in experiment [14], in experiment [15], in experiment [16], in [17] and in [19] was > 100 µM (inactive) each time. In experiment [20], the GI50 was > 100 µM (inactive).
